Results taken from patent publication US20230210803A1, “TRANS-CROCETIN COMPOSITIONS AND TREATMENT REGIMENS” (L.E.A.F. HOLDINGS GROUP LLC, priority 2020, published 2023).

Key:
[1] = mouse, in vivo, iv, 50 mg/kg
[2] = Liposomal CTC and MTC PK in mice; set-up: species or system Balb/c mice; conditions: mouse, in vivo
Protocol: 5 μL of each plasma sample was mixed with 395 μL methanol containing 1% formic acid. Sample mixtures were well mixed by vortexing. […] Samples were vortexed and then centrifuged at 10000 RPM for 10 min at room temperature. 200 μL of supernatant was removed from each sample without disturbing pellet and analyzed by HPLC. If the amount of plasma permitted, this analysis was duplicated.
The concentration of STC in the plasma samples was quantified by standard curve constructed by analyzing plasma samples containing known amount of STC. PK profiles were analyzed.

HUVECs = test: Reoxygenation of HUVECs under hypoxic conditions (BioTracker 520 Green Hypoxia Dye, flow cytometry); conditions: continuous hypoxic conditions (1% PO2)
Protocol: For quantification of the hypoxia levels, cells were then incubated for 1 h with 1.5 μM BioTracker 520 Green Hypoxia Dye (Sigma-Aldrich) before being washed and stored in the hypoxia chamber for 1 h. […] Hypoxia levels were quantified with a BD Accuri™ C6 cell analyzer with a direct read-out of the BioTracker probe. The results were analyzed with FlowJo software version 10 (TreeStar).

[3] = PK of L4L-121 versus free TC in healthy mice; conditions: mouse, in vivo, one intravenous injection 2.5 mg/kg (normalized to TC)
Excerpt: […]. […] […]. […] […]

Row | SMILES | T½ [1] | half-life (t1/2) [2] | reoxygenation effect (PO2) (HUVECs; 5 μg/mL TC, 30 min post-treatment) | PO2 after loss of efficacy (HUVECs; 3 h after treatment) [% PO2] | half-life [3] [min] | AUC ([3]; read-out: exposure (AUC)) [ng·h/mL]
1 | CC(/C=C/C=C(\C)C(=O)[O-])=C\C=C\C=C(C)\C=C\C=C(/C)C(=O)[O-].[Na+].[Na+] [STC free drug, sodium trans-crocetinate] | less than 0.5 h | half an hour | – | – | – | –
2 | CC(/C=C/C=C(\C)C(=O)O)=C\C=C\C=C(C)\C=C\C=C(/C)C(=O)O [free TC, trans-crocetin free acid] | – | – | up to 15 % PO2 | 5 | 37.1 | 2700
